Measured values: patent US20110039763A1, “TARGETED ANTIMICROBIAL MOIETIES” (C3 JIAN, INC., priority 2009, published 2011)
“Also recorded” adds a separate entry of the source.

Key:
microorganisms [1] = assay: Morphology, biofilm and growth disrupting peptides (Table 5); type: cell-based; design: key: A: Peptide aggregates; B: Less hyphal formation; Clumps; Diffuse clumps and small polyps; F: Diffuse growth; H: Thin; I: Growth inhibition; Microcolony formation; Rippled; Small polyps; Thick; W: Halo formation on top, microlonies on bottom
Description: In certain embodiments peptides that induce alterations in phenotype or other biological activities can also be used as antimicrobial effector moieties.

microorganisms [2] = assay: Peptide activities: targeting/binding, antimicrobial, growth or phenotype altering (Tables 7, 8); type: cell-based; conditions: peptides having multiple activities
microorganisms [3] = assay: Targeting peptide binding to target microorganisms (Tables 3, 10, 12); conditions: microorganism(s) the targeting peptide binds; binding in aqueous buffers varied with peptide solubility, preferably 1x PBS

Row | Substance | Organism, effect: M. luteus (microorganisms [1]; M. luteus) | Activities (microorganisms [2]) | Target(s) (microorganisms [3]) | Organism, effect: B. subtilis (microorganisms [1]) | Organism, effect: S. epidermidis (microorganisms [1]) | Organism, effect: E. coli (microorganisms [1]) | Organism, effect: MRSA (microorganisms [1]) | Organism, effect: C. jejuni (microorganisms [1]) | Organism, effect: E. faecalis (microorganisms [1]) | Organism, effect: S. pneumoniae (microorganisms [1])
1 | PF-276: peptide having multiple activities (chain 1 LDLALSTNSLNLEGFSF; chain 2 LDLALSTNSLNLEGFSF; Peptide with targeting and/or antimicrobial activity) | M. luteus (M) | G B | S. epidermidis |  |  |  |  |  |  | 
2 | PF-292: peptide having multiple activities (chain 1 SFVSTTVRLIFEESKRYKF; chain 2 SFVSTTVRLIFEESKRYKF; Peptide with targeting and/or antimicrobial activity) |  | G B | S. epidermidis; also recorded: B. subtilis; also recorded: B. fragilis | B. subtilis (C) | S. epidermidis (C) |  |  |  |  | 
3 | PF-294: peptide having multiple activities (chain 1 DFLVNFLWFKGELNWGKKRYK; chain 2 DFLVNFLWFKGELNWGKKRYK; Peptide with targeting and/or antimicrobial activity) |  | G B | S. epidermidis; also recorded: C. difficile |  | S. epidermidis (C) |  |  |  |  | 
4 | PF-297: peptide having multiple activities (ISKGIDDIVYVINKILSIGNIFKIIKRK; Peptide with targeting and/or antimicrobial activity) |  | G B | S. epidermidis; also recorded: B. subtilis; also recorded: B. fragilis | B. subtilis (C) | S. epidermidis (C) |  |  |  |  | 
5 | PF-301: peptide having multiple activities (GIVLIGLKLIPLLANVLN; Peptide with targeting and/or antimicrobial activity) |  | G B | C. difficile | B. subtilis (C) | S. epidermidis (C) |  |  |  |  | 
6 | PF-306: peptide having multiple activities (GCILPHKKDNYNYIMSKFQDLVKITSKK; Peptide with targeting and/or antimicrobial activity) |  | G B | C. difficile | B. subtilis (C) |  |  |  |  |  | 
7 | PF-313: peptide having multiple activities (YITSHKNARAIIKKFERDEILEEVITHYLNRK; Peptide with targeting and/or antimicrobial activity) |  | G B | S. epidermidis; also recorded: C. difficile |  | S. epidermidis (C) |  |  |  |  | 
8 | PF-344: peptide having multiple activities (DERLPEAKAIRNFNGSVMVLGR; Peptide with targeting and/or antimicrobial activity) |  | G B | B. subtilis; also recorded: C. jejuni |  |  | E. coli (A) |  |  |  | 
9 | PF-350: peptide having multiple activities (LAVILRAIVY; Peptide with targeting and/or antimicrobial activity) |  | G B | S. epidermidis; also recorded: E. coli; also recorded: E. faecalis; also recorded: C. jeikeium; also recorded: C. jejuni |  | S. epidermidis (C) | E. coli (C) | MRSA (C) |  |  | 
10 | PF-360: peptide having multiple activities (chain 1 MEQKVKVIFVPRSKPDNQLKTFVSAVLFKA; chain 2 MEQKVKVIFVPRSKPDNQLKTFVSAVLFKA; Peptide with targeting and/or antimicrobial activity) |  | G B | S. epidermidis; also recorded: B. subtilis; also recorded: E. coli; also recorded: P. aeruginosa; also recorded: C. albicans; also recorded: E. faecalis; also recorded: C. jeikeium; also recorded: C. jejuni |  | S. epidermidis (S) | E. coli (C) | MRSA (H) |  |  | 
11 | PF-362: peptide having multiple activities (chain 1 NIERILKEKVWMIRCVE; chain 2 NIERILKEKVWMIRCVE; Peptide with targeting and/or antimicrobial activity) |  | G B | S. epidermidis; also recorded: E. coli; also recorded: P. aeruginosa; also recorded: C. albicans; also recorded: E. faecalis; also recorded: C. jejuni |  |  | E. coli (C) | MRSA (C) |  |  | 
12 | PF-363: peptide having multiple activities (chain 1 SMLSVTVMCLMHASVAANQAMEKKV; chain 2 SMLSVTVMCLMHASVAANQAMEKKV; Peptide with targeting and/or antimicrobial activity) |  | G B | B. subtilis; also recorded: E. coli; also recorded: P. aeruginosa; also recorded: C. albicans; also recorded: S. pneumoniae; also recorded: E. faecalis |  | S. epidermidis (S) | E. coli (C) | MRSA (H) | C. jejuni (D) | E. faecalis (D) | S. pneumoniae (R)
13 | PF-370: peptide having multiple activities (chain 1 VIFLHKESGNLKEIFY; chain 2 VIFLHKESGNLKEIFY; Peptide with targeting and/or antimicrobial activity) |  | G B | S. epidermidis; also recorded: E. coli; also recorded: P. aeruginosa; also recorded: E. faecalis; also recorded: C. jejuni |  | S. epidermidis (C) | E. coli (R) | MRSA (C) |  |  | 
14 | PF-373: peptide having multiple activities (chain 1 HFYLLFER; chain 2 HFYLLFER; Peptide with targeting and/or antimicrobial activity) |  | G B | S. epidermidis and E. coli and P. aeruginosa and C. albicans and MRSA and E. faecalis and C. jejuni |  | S. epidermidis (M) |  | MRSA (M) |  |  | 
15 | PF-378: peptide having multiple activities (chain 1 ESAKSNLNFLMQEEWALFLLL; chain 2 ESAKSNLNFLMQEEWALFLLL; Peptide with targeting and/or antimicrobial activity) |  | G B | B. subtilis; also recorded: B. fragilis; also recorded: E. coli; also recorded: P. aeruginosa; also recorded: C. jeikeium |  | S. epidermidis (M) |  | MRSA (M) |  |  | 
16 | PF-381: peptide having multiple activities (chain 1 QGANPCQQVGFTVNDPDCRLAKTV; chain 2 QGANPCQQVGFTVNDPDCRLAKTV; Peptide with targeting and/or antimicrobial activity) |  | G B | E. coli; also recorded: P. aeruginosa; also recorded: C. jejuni |  | S. epidermidis (C) | E. coli (R) | MRSA (C) |  | E. faecalis (C) | 
17 | PF-382: peptide having multiple activities (chain 1 KYKCSWCKRVYTLRKDHKTAR; chain 2 KYKCSWCKRVYTLRKDHKTAR; Peptide with targeting and/or antimicrobial activity) |  | G B | S. epidermidis; also recorded: B. subtilis; also recorded: B. fragilis; also recorded: E. coli; also recorded: P. aeruginosa; also recorded: E. faecalis; also recorded: C. jeikeium; also recorded: C. jejuni |  |  |  | MRSA (M) |  |  | 
18 | PF-383: peptide having multiple activities (chain 1 WSEIEINTKQSN; chain 2 WSEIEINTKQSN; Peptide with targeting and/or antimicrobial activity) |  | G B | S. epidermidis; also recorded: B. subtilis; also recorded: B. fragilis; also recorded: E. coli; also recorded: C. jejuni |  | S. epidermidis (C) | E. coli (R) |  |  |  | 
19 | PF-385: peptide having multiple activities (chain 1 MIKKSILKIKYYVPVLISLTLILSA; chain 2 MIKKSILKIKYYVPVLISLTLILSA; Peptide with targeting and/or antimicrobial activity) |  | G B | S. epidermidis; also recorded: E. coli; also recorded: P. aeruginosa; also recorded: C. albicans; also recorded: E. faecalis |  |  | E. coli (A) |  |  |  | 
20 | PF-390: peptide having multiple activities (chain 1 VVAYVITQVGAIRF; chain 2 VVAYVITQVGAIRF; Peptide with targeting and/or antimicrobial activity) |  | G B | S. epidermidis and P. aeruginosa and C. albicans and MRSA |  | S. epidermidis (D) | E. coli (C) | MRSA (D) | C. jejuni (D) | E. faecalis (D) | S. pneumoniae (D)
21 | PF-392: peptide having multiple activities (chain 1 DPAGCNDIVRKYCK; chain 2 DPAGCNDIVRKYCK; Peptide with targeting and/or antimicrobial activity) |  | G B | S. epidermidis; also recorded: B. subtilis; also recorded: S. pneumoniae; also recorded: C. jeikeium; also recorded: C. jejuni |  |  |  | MRSA (S) | C. jejuni (A) | E. faecalis (A) | 
